This note sets out measurements from US7635702B2, “Imidazole compounds as transforming growth factor (TGF) inhibitors” (Pfizer Inc., priority 2002, dated 2009).

This assay deals with T1, ALK-5 (TβRI) (Homo sapiens, UniProt P36897).
T1 construct: using either the kinase domain of ALK5 with Smad3 as substrate; GST
T1 sequence (P36897 205-495 limits assumed): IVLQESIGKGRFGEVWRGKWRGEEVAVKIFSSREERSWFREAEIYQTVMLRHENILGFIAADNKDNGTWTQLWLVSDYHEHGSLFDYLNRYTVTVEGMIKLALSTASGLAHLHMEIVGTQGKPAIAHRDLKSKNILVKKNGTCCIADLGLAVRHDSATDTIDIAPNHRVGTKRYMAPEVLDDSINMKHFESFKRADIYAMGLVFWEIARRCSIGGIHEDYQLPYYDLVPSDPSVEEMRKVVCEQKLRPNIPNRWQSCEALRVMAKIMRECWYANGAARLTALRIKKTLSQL
Kind of assay: ALK-5 (TβRI) kinase assay. Format: biochemical. The conditions noted are these: GST-ALK5 with GST-Smad3 substrate, 33P-ATP. The method, then:
The kinase assays were performed with 65 nM GST-ALK5 and 84 nM GST-Smad3 in 50 mM HEPES, 5 mM MgCl2, 1 mM CaCl2, 1 mM dithiothreitol, and 3_M ATP. Reactions were incubated with 0.5_Ci of [33 P]_ATP for 3 h at 30° C. Phosphorylated protein was captured on P-81 paper (Whatman, Maidstone, England), washed with 0.5% phosphoric acid, and counted by liquid scintillation. Alternatively, Smad3 or Smad1 protein was also coated onto FlashPlate Sterile Basic Microplates (PerkinElmer Life Sciences, Boston, Mass.). Kinase assays were then performed in Flash-Plates with same assay conditions using either the kinase domain of ALK5 with Smad3 as substrate or the kinase domain of ALK6 (BMP receptor) with Smad1 as substrate. Plates were washed three times with phosphate buffer and counted by TopCount (Packard Bio-science, Meriden, Conn.). (Laping, N.J. et al. Molecular Pharmacology 62:58-64 (2002)).

Usually IC50 stands for the point on the concentration scale where inhibition reaches its midpoint. Lower therefore signals greater potency in that assay.

`Cc1cccc(-c2[nH]cnc2-c2ccc3nnn(C)c3c2)n1` [Example 12, 1-Methyl-6-[5-(6-methyl-pyridin-2-yl)-1H-imidazol-4-yl]-1H-benzotriazole] displayed an IC50 of about 44.5 nM.
